Test results reported in US20230128252A1, “PHARMACEUTICAL COMPOSITIONS” (Shenzhen Pharmacin Co., Ltd., priority 2020, published 2023).

What was measured:
[1] = Solubility of clofazimine in aqueous media; format: physicochemical; settings: aqueous medium, aqueous with cosolvent or surfactant or cyclodextrin, thermodynamic from solid; pH 4.5 + 0.25% SDS, 25° C.
Experimental: Clofazimine was added to various aqueous media, at various pH values (2-5 mL) in a 10 mL glass vial, at 25° C., with stirring. […] This cycle was repeated until no further dissolution was observable. The suspension was then centrifuged and the supernatant filtered by microfiltration.

[2] = Skin permeability of clofazimine preparations (vertical Franz diffusion cells); format: in vitro ADME, NU/NU nude mice
[3] = Compatibility of clofazimine and excipients (60° C., 3 days, HPLC); format: physicochemical; settings: for Degradation total impurities: 60° C. for 3 days
Experimental: Clofazimine was dissolved into different excipients with different mass ratios, then the mixture was placed in the condition of 60° C. for 3 days. The total degradation impurities were measured by HPLC and summarized below in Table 25. The excipients were classified by the results as below.

[4] = tested on: imiquimod-induced psoriasis like mouse model; assay: imiquimod-induced psoriasis like mouse model, PASI method; format: in vivo, C57BL/6J mice; settings: Formulations 1-3, topical
Description: Fifty C57BL/6J mice were random divided into 5 groups, naïve group, model group, Formulation 1-3 groups. All mice were shaved on the back. Naïve group was the negative group and as the blank control. The other four groups were locally applied with 5% imiquimod cream (sold under the tradename Aldara®) once a day for a week. […] In the last three days, the changes of skin lesions were observed and evaluated by PASI method. PASI method: the scores of erythema, scale and infiltration thickening in the skin lesions were scored respectively, and the sum of the three scores was the total score. PASI scoring standard: 0, none; 1, mild; 2, moderate; 3, severe; 4, extremely severe.

[5] = tested on: IL-2 secretion of activated Jurkat cells; assay: Inhibition of IL-2 secretion of activated Jurkat cells (ELISA); format: cell-based; settings: 1 μM, 3 μM, and 10 μM in DMSO; PMA+PHA activated; 24 h (FIG. 11)
Experimental: In each group, Jurkat cells were incubated with corresponding formulation. After 24 h, the secretion of IL-2 was detected by ELISA.

[6] = blood concentration after topical application in minipigs; format: in vivo, Bama minipigs
Experimental: Studies were performed to evaluate the blood concentration-time curve after topical application of Formulations 10-12 (clofazimine 0.01%, 0.03% and 0.1%) in Bama minipigs. 24 Bama minipigs (12 male and 12 female) were randomly divided into 4 groups (n=6), three groups received a single topical application of Formulations 10-12 (clofazimine 0.01%, 0.03% and 0.1%). […] In above 4 groups, Formulations 10-12 were applicated to 5% body surface area of Bama minipigs, that is, 1.5 mg ointment/cm^2 (corresponding to 0.15, 0.45, 1.5 μg API/cm^2 respectively). […] A validated LC-MS/MS method was used to determine the concentration of clofazimine in plasma and the pharmacokinetic parameters were calculated (the standard curve range of clofazimine is 0.0100˜10.0 ng/mL).

[7] = pharmacokinetics and tissue distribution after single-dose topical application in minipigs; format: in vivo, Bama minipigs; settings: Formulation 11 (0.03%) single topical application
Experimental: Studies were performed to evaluate the pharmacokinetics and tissue distribution after a single-dose topical application of Formulation 11 (clofazimine 0.03%) in Bama minipigs. 24 Bama minipigs were divided into 6 groups (n=4), each group of minipigs received a single topical application of Formulation 11 (0.03%) at a dose of 1.5 mg ointment/cm^2. Blood samples, epidermis, dermis, subcutaneous tissue and subcutaneous muscle were collected at 0.5, 4, 24, 48, 72 and 96 hours (one time point for one group) after drug application. A validated LC-MS/MS method was used to determine the concentration of clofazimine in plasma, epidermis, dermis, subcutaneous tissues and subcutaneous muscle and the pharmacokinetic parameters were calculated (the standard curve range of clofazimine is 0.0100˜10.0 ng/mL).

[8] = cited from earlier work
[9] = tested on: chronic discoid lupus erythematosus; settings: human clinical study; cited from earlier work

SMILES: CC(C)/N=c1\cc2n(-c3ccc(Cl)cc3)c3ccccc3nc-2cc1Nc1ccc(Cl)cc1 [Clofazimine, N,5-bis(4-chlorophenyl)-3-propan-2-ylimino phenazin-2-amine]
- solubility at 24 h [1]: 710 µg/mL
- clofazimine content (Table 12, FIG. 3) ([2]; Gel, PEG 400 10 wt %): 1.6000 μg/cm^2
- clofazimine content (Table 12, FIG. 3) ([2]; Gel, Transcutol): 0.1894 μg/cm^2
- clofazimine content (Table 12, FIG. 3) ([2]; Gel, Tween 80 10 wt %): 0.9800 μg/cm^2
- clofazimine content (Table 12, FIG. 3) ([2]; Gel, labrasol 10 wt %): 0.8200 μg/cm^2
- clofazimine content (Table 12, FIG. 3) ([2]; Solvents (solution), PEG 400 99.9 wt %): 0.2700 μg/cm^2
- clofazimine content (Table 12, FIG. 3) ([2]; Solvents (solution), Transcutol): 0.0596 μg/cm^2
- clofazimine content (Table 12, FIG. 3) ([2]; Solvents (solution), Tween 80 99.9 wt %): 0.2500 μg/cm^2
- clofazimine content (Table 12, FIG. 3) ([2]; Solvents (solution), labrasol 99.9 wt %): 0.2600 μg/cm^2
- clofazimine content ([2]; gel: Carbomer 940 0.5, Transcutol 20, Lecithin 5 wt %, pH 7.0, clofazimine amount 0.01%): 0.0568 ug/cm^2
- clofazimine content ([2]; gel: Carbomer 940 0.5, Transcutol 20, Lecithin 5 wt %, pH 7.0, clofazimine amount 0.02%): 0.1971 ug/cm^2
- clofazimine content ([2]; gel: Carbomer 940 0.5, Transcutol 20, Lecithin 5 wt %, pH 7.0, clofazimine amount 0.05%): 0.5394 ug/cm^2
- clofazimine content ([2]; gel: Carbomer 940 0.5, Transcutol 20, Lecithin 5 wt %, pH 7.0, clofazimine amount 0.1%): 0.8014 ug/cm^2
- clofazimine content ([2]; gel: Carbomer 940 0.5, Transcutol 20, Lecithin 5 wt %, pH 7.0, clofazimine amount 0.2%): 0.7102 ug/cm^2
- clofazimine content ([2]; gel: Carbomer 940 0.5, Transcutol 20, Lecithin 5 wt %, pH 7.0, clofazimine amount 0.5%): 0.7512 ug/cm^2
- clofazimine content ([2]; gel: clofazimine 0.1, Carbomer 940 0.5, Transcutol 20, Lecithin 5 wt %, pH 6.0): 0.4246 ug/cm^2
- clofazimine content ([2]; gel: clofazimine 0.1, Carbomer 940 0.5, Transcutol 20, Lecithin 5 wt %, pH 7.0): 0.4146 ug/cm^2
- clofazimine content ([2]; gel: clofazimine 0.1, Carbomer 940 0.5, Transcutol 20, Lecithin 5 wt %, pH 8.0): 0.3463 ug/cm^2
- clofazimine content ([2]; gel: clofazimine 0.1, Carbomer 940 0.5, Transcutol 20, Lecithin 5 wt %, pH 9.0): 0.2970 ug/cm^2
- clofazimine content ([2]; gel: clofazimine 0.1, Carbomer 940 0.5, Transcutol 20, Lecithin 5 wt %, pH 9.5): 0.2463 ug/cm^2
- clofazimine content ([2]; gel: clofazimine 0.1, Carbomer 940 0.5, Transcutol 20 wt %, pH 7.0, Control (water instead of penetration enhancer)): 0.1331 ug/cm^2
- clofazimine content ([2]; gel: clofazimine 0.1, Carbomer 940 0.5, Transcutol 20 wt %, pH 7.0, lecithin 2%): 0.2272 ug/cm^2
- clofazimine content ([2]; gel: clofazimine 0.1, Carbomer 940 0.5, Transcutol 20 wt %, pH 7.0, lecithin 3%): 0.2745 ug/cm^2
- clofazimine content ([2]; gel: clofazimine 0.1, Carbomer 940 0.5, Transcutol 20 wt %, pH 7.0, lecithin 4%): 0.3026 ug/cm^2
- clofazimine content ([2]; gel: clofazimine 0.1, Carbomer 940 0.5, Transcutol 20 wt %, pH 7.0, lecithin 5%): 0.3578 ug/cm^2
- clofazimine content ([2]; gel: clofazimine 0.1, Carbomer 940 0.5, Transcutol 20 wt %, pH 7.0, lecithin 6%): 0.3335 ug/cm^2
- clofazimine content ([2]; gel: clofazimine 0.1, Carbomer 940 0.5, Transcutol 20 wt %, pH 7.0, lecithin 10%): 0.3968 ug/cm^2
- clofazimine content ([2]; gel: clofazimine 0.1, Carbomer 940 0.5, Transcutol 20 wt %, pH 7.0, lecithin 19%): 0.2989 ug/cm^2
- clofazimine content ([2]; gel: clofazimine 0.1, Carbomer 940 0.5, Transcutol 20 wt %, pH 7.0, penetration enhancer 4 wt %: DMSO): 0.1806 ug/cm^2
- clofazimine content ([2]; gel: clofazimine 0.1, Carbomer 940 0.5, Transcutol 20 wt %, pH 7.0, penetration enhancer 4 wt %: Ethanol): 0.2055 ug/cm^2
- clofazimine content ([2]; gel: clofazimine 0.1, Carbomer 940 0.5, Transcutol 20 wt %, pH 7.0, penetration enhancer 4 wt %: Lecithin): 0.9881 ug/cm^2
- clofazimine content ([2]; gel: clofazimine 0.1, Carbomer 940 0.5, Transcutol 20 wt %, pH 7.0, penetration enhancer 4 wt %: Octanol): 0.6230 ug/cm^2
- clofazimine content ([2]; gel: clofazimine 0.1, Carbomer 940 0.5, Transcutol 20 wt %, pH 7.0, penetration enhancer 4 wt %: Oleic acid): 0.2344 ug/cm^2
- clofazimine content ([2]; gel: clofazimine 0.1, Carbomer 940 0.5, Transcutol 20 wt %, pH 7.0, penetration enhancer 4 wt %: SDS (0.05%)): 0.1829 ug/cm^2
- clofazimine content ([2]; gel: clofazimine 0.1, Carbomer 940 0.5, Transcutol 20 wt %, pH 7.0, penetration enhancer 4 wt %: Tween 20): 0.1535 ug/cm^2
- clofazimine content ([2]; gel: clofazimine 0.1, Carbomer 940 0.5, Transcutol 20 wt %, pH 7.0, penetration enhancer 4 wt %: Tween 80): 0.2484 ug/cm^2
- clofazimine content ([2]; gel: clofazimine 0.1, Carbomer 940 0.5 wt %, pH 7.0, solvent 10 wt % PEG 400, 4 hours): 1.6000 ug/cm^2
- clofazimine content ([2]; gel: clofazimine 0.1, Carbomer 940 0.5 wt %, pH 7.0, solvent 10 wt % Transuctol, 4 hours): 0.1894 ug/cm^2
- clofazimine content ([2]; gel: clofazimine 0.1, Carbomer 940 0.5 wt %, pH 7.0, solvent 10 wt % Tween 80, 4 hours): 0.9800 ug/cm^2
- clofazimine content ([2]; gel: clofazimine 0.1, Carbomer 940 0.5 wt %, pH 7.0, solvent 10 wt % labrasol, 4 hours): 0.8200 ug/cm^2
- clofazimine content ([2]; gel: clofazimine 0.1, Transcutol 20, Lecithin 5 wt %, pH 7.0, Carbomer 940 amount 0.5%): 0.4871 ug/cm^2
- clofazimine content ([2]; gel: clofazimine 0.1, Transcutol 20, Lecithin 5 wt %, pH 7.0, Carbomer 940 amount 0.8%): 0.3054 ug/cm^2
- clofazimine content ([2]; gel: clofazimine 0.1, Transcutol 20, Lecithin 5 wt %, pH 7.0, Carbomer 940 amount 1.0%): 0.3205 ug/cm^2
- clofazimine content ([2]; inner skin, 4 hours, solution, clofazimine 100 mg in 99.9 g Ethanol): 0.5565 ug/cm^2
- clofazimine content ([2]; inner skin, 4 hours, solution, clofazimine 100 mg in 99.9 g KHS-15): 0.0660 ug/cm^2
- clofazimine content ([2]; inner skin, 4 hours, solution, clofazimine 100 mg in 99.9 g Laurocapram): 0.3593 ug/cm^2
- clofazimine content ([2]; inner skin, 4 hours, solution, clofazimine 100 mg in 99.9 g Oleic acid): 0.0577 ug/cm^2
- clofazimine content ([2]; inner skin, 4 hours, solution, clofazimine 100 mg in 99.9 g PEG 400): 0.1174 ug/cm^2
- clofazimine content ([2]; inner skin, 4 hours, solution, clofazimine 100 mg in 99.9 g Transuctol): 0.0596 ug/cm^2
- clofazimine content ([2]; inner skin, 4 hours, solution, clofazimine 100 mg in 99.9 g Tween 20): 0.0639 ug/cm^2
- clofazimine content ([2]; inner skin, 4 hours, solution, clofazimine 100 mg in 99.9 g Tween 80): 0.0660 ug/cm^2
- chemical stability (hydrolysis, oxidation) [3]: easily hydrolyzed and oxidized
- Degradation total impurities ([3]; Campmul MCM (1:100)): >1%
- Degradation total impurities ([3]; Campmul MCM + water (1:100:800)): >1%
- Degradation total impurities ([3]; Gelucire 44/14 (1:100)): >1%
- Degradation total impurities ([3]; Oleic acid (1:50)): 0.5-1%
- Degradation total impurities ([3]; Oleic acid + labrasol (1:50:100)): >1%
- Degradation total impurities ([3]; PEG 400 (1:400)): >1%
- Degradation total impurities ([3]; PEG 3350 (1:400)): 0-0.5%
- Degradation total impurities ([3]; RH 40 (1:100)): 0-0.5%
- Degradation total impurities ([3]; Stearyl alcohol (1:70)): 0-0.5%
- Degradation total impurities ([3]; Tefose 63 (1:100)): >1%
- Degradation total impurities ([3]; Vaseline (1:3000)): 0-0.5%
- Degradation total impurities ([3]; glycerin (1:2500)): 0-0.5%
- Degradation total impurities ([3]; labrasol (1:100)): 0.5-1%
- Degradation total impurities ([3]; labrasol + carbomer (1:100:5)): 0.5-1%
- Degradation total impurities ([3]; labrasol + water (1:100:800)): 0.5-1%
- Degradation total impurities ([3]; liquid paraffin (1:1000)): 0-0.5%
- Degradation total impurities ([3]; oleic acid + labrasol + water (1:50:100:800)): >1%
- Degradation total impurities ([3]; propyl glycol (1:2500)): 0-0.5%
- Degradation total impurities ([3]; transcutol + tween 80 (1:100:100)): >1%
- Degradation total impurities ([3]; transcutol + water (1:100:800)): 0.5-1%
- Degradation total impurities ([3]; trascutol (1:100)): >1%
- Degradation total impurities ([3]; tween 80 (1:100)): >1%
- Degradation total impurities ([3]; tween 80 + water (1:100:800)): >1%
- chemical stability of clofazimine in lipid excipients ([3]; lipid excipients such as PEG 3350, stearyl alcohol, vaseline, and liquid paraffin): enhanced chemical stability
- treatment effect on the imiquimod-induced psoriasis like mouse model [4]: confirmed the treatment effect
- secretion of IL-2 [5]: significantly inhibited
- clofazimine in plasma ([6]; repeated dose (0.03%, bid, 9 applications)): a very low level of clofazimine could be detected in plasma
- clofazimine in plasma ([6]; single dose groups, majority of the samples): no clofazimine was detectable
- clofazimine in plasma ([6]; single dose groups, minority of samples in the 0.01% and 0.1% groups, 1.5 mg ointment/cm^2, 5% body surface area): very low level of clofazimine (close to the detection limit of the instrument)
- gender difference in clofazimine absorption ([6]; topical, male and female): No significant gender difference
- median time to peak dermal concentration [7]: about 4 h
- median time to peak epidermal concentration [7]: about 0.5 h
- median time to peak subcutaneous muscle concentration [7]: about 0.5 h
- median time to peak subcutaneous tissues concentration [7]: about 4 h
- tissue distribution [7]: mainly distributed in the epidermis and dermis, and not absorbed into blood
- Log P [8]: 7.48
- pKa [8]: 8.37
- Water solubility ([8]; virtually insoluble): 0.225 µg/mL
- remission of chronic discoid lupus erythematosus [9]: a majority of patients showed remission
